In PubChem BioAssay AID330 (DTP/NCI, 2004):
Several values for one entry are separate records, joined by “and”; a condition that tells them apart may be missing. Equal entries are not always repeated. Inconclusive results and toxic doses are left out. How the source made its calls: active means survival T/C of 150% or more; inactive means T/C below 125% in these data.

Tested on: P388 leukemia ip, CD2F1 mice, survival T/C
Assay: NCI In Vivo Anticancer Drug Screen. Data for tumor model P388 Leukemia (intraperitoneal) in CD2F1 (CDF1) mice
Details: endpoint: median survival time, higher = longer survival
In short: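 Mice carrying the transplanted tumor received test compound or vehicle. Survival was recorded in each group, and the value is the treated-group measurement divided by that of the vehicle-treated control group.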

[1] = dose: 50.0 mg/kg/injection, schedule: Q01DX009 (ip), vehicle: Klucel (hydroxypropylcellulose) (HPC)
[2] = dose: 100.0 mg/kg/injection, schedule: Q01DX009 (ip), vehicle: Klucel (hydroxypropylcellulose) (HPC)
[3] = dose: 200.0 mg/kg/injection, schedule: Q01DX009 (ip), vehicle: Klucel (hydroxypropylcellulose) (HPC)
[4] = dose: 100.0 mg/kg/injection, schedule: Q01DX009 (ip), vehicle: saline with Tween-80
[5] = dose: 200.0 mg/kg/injection, schedule: Q01DX009 (ip), vehicle: saline with Tween-80

Measured: T/C

c1ccc([P+](CCN2Cc3ccccc3C2)(c2ccccc2)c2ccccc2)cc1
inactive: dose: 0.78 mg/kg/injection, schedule: Q01DX009 (ip), vehicle: other 119 % of control | dose: 0.78 mg/kg/injection, schedule: Q01DX009 (ip), vehicle: saline 101 % of control | dose: 1.56 mg/kg/injection, schedule: Q01DX009 (ip), vehicle: other 110 % of control | dose: 1.56 mg/kg/injection, schedule: Q01DX009 (ip), vehicle: saline 101 % of control | dose: 3.12 mg/kg/injection, schedule: Q01DX009 (ip), vehicle: saline 107 % of control | dose: 3.13 mg/kg/injection, schedule: Q01DX009 (ip), vehicle: other 114 % of control | dose: 3.13 mg/kg/injection, schedule: Q01DX009 (ip), vehicle: saline 105 % of control | dose: 6.25 mg/kg/injection, schedule: Q01DX009 (ip), vehicle: other 118 % of control | dose: 6.25 mg/kg/injection, schedule: Q01DX009 (ip), vehicle: saline 109 % of control and 119 % of control | dose: 12.5 mg/kg/injection, schedule: Q01DX009 (ip), vehicle: other 108 % of control | dose: 12.5 mg/kg/injection, schedule: Q01DX009 (ip), vehicle: saline 120 % of control and 122 % of control | dose: 25.0 mg/kg/injection, schedule: Q01DX009 (ip), vehicle: other 88 % of control

CSc1c(C(=O)O)cc(C(C)(C)C)cc1C(=O)O
inactive: [1] 91 % of control | [2] 100 % of control | [3] 91 % of control

CCOC(=O)CC(=O)CC(C(=O)OCC)C(=O)OCC
inactive: dose: 50.0 mg/kg/injection, schedule: Q01DX005 (ip), vehicle: saline with Tween-80 98 % of control | dose: 100.0 mg/kg/injection, schedule: Q01DX005 (ip), vehicle: saline with Tween-80 104 % of control | dose: 200.0 mg/kg/injection, schedule: Q01DX005 (ip), vehicle: saline with Tween-80 105 % of control

CCc1c2c(cc3c1[nH]c1ccccc13)C(=O)N(c1ccc(OC)cc1)C2=O
inactive: dose: 50.0 mg/kg/injection, schedule: Q01DX005 (ip), vehicle: Klucel (hydroxypropylcellulose) (HPC) 92 % of control | dose: 100.0 mg/kg/injection, schedule: Q01DX005 (ip), vehicle: Klucel (hydroxypropylcellulose) (HPC) 91 % of control | dose: 200.0 mg/kg/injection, schedule: Q01DX005 (ip), vehicle: Klucel (hydroxypropylcellulose) (HPC) 90 % of control

CCCCCN(CCCCC)c1nsc(Cl)n1
inactive: dose: 25.0 mg/kg/injection, schedule: Q01DX009 (ip), vehicle: saline with Tween-80 108 % of control | dose: 50.0 mg/kg/injection, schedule: Q01DX009 (ip), vehicle: saline with Tween-80 103 % of control | [4] 100 % of control

COC(=O)c1ccc(C(N)=O)nc1
inactive: dose: 25.0 mg/kg/injection, schedule: Q04DX002 (ip), vehicle: Klucel (hydroxypropylcellulose) (HPC) 97 % of control | dose: 50.0 mg/kg/injection, schedule: Q04DX002 (ip), vehicle: Klucel (hydroxypropylcellulose) (HPC) 101 % of control | dose: 100.0 mg/kg/injection, schedule: Q04DX002 (ip), vehicle: Klucel (hydroxypropylcellulose) (HPC) 96 % of control | dose: 200.0 mg/kg/injection, schedule: Q04DX002 (ip), vehicle: Klucel (hydroxypropylcellulose) (HPC) 105 % of control

Cc1cccc(/C=N\N=C\c2cccc(C)n2)n1
inactive: [4] 100 % of control | [5] 100 % of control

OCC1OC(n2ccn(C3OC(CO)C(O)C3O)c2=S)C(O)C1O (stereo not given)
inactive: dose: 25.0 mg/kg/injection, schedule: Q04DX003 (ip), vehicle: water 103 % of control | dose: 50.0 mg/kg/injection, schedule: Q04DX003 (ip), vehicle: water 111 % of control | dose: 100.0 mg/kg/injection, schedule: Q04DX003 (ip), vehicle: water 111 % of control | dose: 200.0 mg/kg/injection, schedule: Q04DX003 (ip), vehicle: water 112 % of control | dose: 400.0 mg/kg/injection, schedule: Q04DX003 (ip), vehicle: water 111 % of control

CN1C=C(C#N)CCC1Sc1ccc(Cl)cc1 (stereo not given)
inactive: dose: 60.0 mg/kg/injection, schedule: Q01DX005 (ip), vehicle: saline with Tween-80 105 % of control | dose: 120.0 mg/kg/injection, schedule: Q01DX005 (ip), vehicle: saline with Tween-80 103 % of control | dose: 240.0 mg/kg/injection, schedule: Q01DX005 (ip), vehicle: saline with Tween-80 104 % of control

CC/S(=N\S(=O)(=O)c1ccc(C)cc1)c1ccccc1 (stereo not given)
inactive: [4] 100 % of control | [5] 109 % of control | dose: 400.0 mg/kg/injection, schedule: Q01DX009 (ip), vehicle: saline with Tween-80 100 % of control

CCOC(=O)C1=C(C)NC(C)=C(C(=O)OCC)C1c1ccc(OC)cc1
inactive: dose: 25.0 mg/kg/injection, schedule: Q01DX009 (ip), vehicle: Klucel (hydroxypropylcellulose) (HPC) 94 % of control | [1] 91 % of control | [2] 100 % of control | [3] 101 % of control
